Measurements reported in PubChem BioAssay AID489023 (Sanford-Burnham Center for Chemical Genomics, 2010).
Active and inactive are the calls of the source. How the calls were made is not given here.

Test system: 697B cells, BCR-induced NF-kB luciferase reporter luminescence
Test: B-cell receptor NF-kB reporter inhibition – 697B cells, luciferase luminescence, dose response (AID 489023)

SMILES | IC50
Cc1ccccc1-c1cc(C(=O)Nc2sc(C(=O)OC(C)C)c(C)c2C#N)c2ccccc2n1 | 42.8 µM (inactive)
Cc1c(CCC(=O)N2CCC(C(=O)O)CC2)c(=O)oc2cc3oc4c(c3cc12)CCCC4 | 14 µM
Cc1ccc(/C=C2\SC(=S)N(CCCC(=O)Nc3ccccn3)C2=O)cc1 | 0.37 µM
CC(C)CCNC(=O)CCCOc1cc(=O)n(C)c2ccccc12 | 64.3 µM (inactive)
Oc1cc(O)cc(-c2cc3ccc(O)cc3o2)c1 | > 80 µM (inactive)
CCCOc1ccc(NC(=O)C(=O)NCCCn2ccnc2)cc1 | 14.2 µM
COc1ccccc1/C=C1\SC(=S)N(CCC(=O)Nc2cccc(O)c2)C1=O | > 80 µM (inactive)
C/C=C(/C)C(=O)OC1Cc2c(ccc3ccc(=O)oc23)OC1(C)C (centres undefined) | > 80 µM (inactive)
CCn1c(=O)cc(SCC(=O)N2CCN(C)CC2)c2ccccc21 | > 80 µM (inactive)
CC1CN(S(=O)(=O)c2ccc(C(=O)Nc3nc(-c4cc5ccccc5o4)cs3)cc2)CC(C)O1 (centres undefined) | > 80 µM (inactive)
O=C(Nc1ccccc1C(=O)Nc1nnc(C(F)(F)F)s1)c1ccccc1 | > 80 µM (inactive)
CCC(C)(C)c1ccc(OCCCC[n+]2ccccc2)c(C(C)(C)CC)c1 | 18.2 µM
CCCCCC/C=C/c1ccc(OC)c([C@H]2[C@H]3C=CC[C@@H](C)[C@@H]3C(=O)N2Cc2ccccc2)c1 | > 80 µM (inactive)
COc1ccc(OC)c(NC(=O)c2[nH]c(C)c(C(C)=O)c2C)c1 | > 80 µM (inactive)
Cc1ccc(Nc2nc(N3CCOCC3)nc(N3CCOCC3)n2)cc1C | 1.33 µM
CCc1ccc(/C=C2/SC(=S)N(CCC(=O)Nc3cccc(C(=O)O)c3)C2=O)cc1 | > 80 µM (inactive)
Cn1c(=O)cc(OCCCC(=O)N2CCCCC2)c2ccccc21 | > 80 µM (inactive)
O=C1CCC2S/C(=C/Nc3ccc(C(F)(F)F)cc3)C(=O)N12 (centres undefined) | 0.93 µM
CCc1ccc(-c2nnn(CCC(=O)OC)n2)cc1 | 5.46 µM
COc1ccc(/C=C2\SC(=S)N(CCC(=O)Nc3cccc(O)c3)C2=O)cc1 | > 80 µM (inactive)
COc1cc(OC)cc(-c2cc3nc(C)c(CCC(=O)Nc4nc(C)cs4)c(C)n3n2)c1 | 13.2 µM
COc1ccc(-c2noc(CCCC(=O)Nc3ccc(C(N)=O)cc3)n2)cc1 | 8.71 µM
COc1cc(C[C@@H]2C(=O)OC[C@H]2Cc2ccc(OC)c(OC)c2)ccc1O | > 80 µM (inactive)
Cc1csc(NC(=O)CCc2c(C)nc3cc(-c4ccc(Cl)cc4)nn3c2C)n1 | 4.77 µM
COc1ccc(/C=C2\SC(=O)N(CCCC(=O)Nc3ccc(C(=O)O)cc3)C2=O)cc1OC | 7.83 µM

SMILES | IC50
CCOc1ccc(-c2c[n+]3c(n2-c2ccccc2)CCCCC3)cc1 | > 80 µM (inactive)
CCCCCCn1c(-c2ccco2)nc2oc3cc(OC)ccc3c(=O)c2c1=O | > 80 µM (inactive)
CCn1c(=O)cc(SCC(=O)N2CCCCC2)c2ccccc21 | > 80 µM (inactive)
COc1ccc2nc(Sc3c([N+](=O)[O-])nc(C)n3Cc3ccccc3)[nH]c2c1 | 18.2 µM
O=C(CN1C(=O)c2ccccc2S1(=O)=O)c1ccc(Cl)cc1Cl | 0.44 µM
Cn1c(=O)cc(Nc2ccccc2)c2c(=O)n(-c3ccccc3)c(=O)n(-c3ccccc3)c21 | 5.6 µM
Cc1csc(NC(=O)/C=C/c2ccc3c(c2)OCO3)n1 | 6.13 µM
COc1ccc(-c2noc(N3CCC(C(=O)Nc4ccc(F)cc4F)CC3)n2)cc1 | > 80 µM (inactive)
CC1=CC(C)(C)Nc2ccc(OC(=O)c3ccco3)cc21 | 8.24 µM
CCN1C(=O)c2cccc3c(S(=O)(=O)NCC4CCCO4)ccc1c23 (centres undefined) | 69.7 µM (inactive)
CCC(C)[C@H](N)c1nnc(SCC(=O)c2ccc(Cl)cc2)o1 (some centres undefined) | > 80 µM (inactive)
Cc1cc(C)c(CN2CCN(C(=O)Cn3cnc4c(NCc5ccccc5)ncnc43)CC2)c(C)c1 | 52.7 µM (inactive)
CCc1sc(C(=O)Nc2cccc(-n3cnnn3)c2)cc1C | > 80 µM (inactive)
COc1ccccc1/C=C1\SC(=S)N(CCC(=O)Nc2nnc(C)s2)C1=O | > 80 µM (inactive)
CCC(C)N1C(=O)/C(=C/c2c(NCCCOC(C)C)nc3c(C)cccn3c2=O)SC1=S (centres undefined) | > 80 µM (inactive)
Cc1nc2ccccn2c1C(=O)/C=C/c1cccc([N+](=O)[O-])c1 | 22.8 µM (inactive)
CCN1C(=O)c2cccc3c(NC(=O)c4cccc(N5C(=O)CCC5=O)c4)ccc1c23 | > 80 µM (inactive)
N=c1ccn(Cc2ccccc2Cl)cc1 | > 80 µM (inactive)
COc1ccc(OC)c(S(=O)(=O)Nc2ccc(-c3ccc4nnc(C)n4n3)cc2)c1 | > 80 µM (inactive)
Cn1nnnc1Sc1ncnc2scc(Br)c12 | 0.67 µM
CNC(=O)c1cccn(Cc2ccc(C(F)(F)F)cc2)c1=O | 47.9 µM (inactive)
COC(=O)c1cc(NC(=O)Nc2cc(OC)ccc2OC)cc(C(=O)OC)c1 | > 80 µM (inactive)
CCN(CC)CCOC(=O)c1ccc(NC(=O)COc2cc(=O)n(CC)c3ccccc23)cc1 | > 80 µM (inactive)
COc1ccc(/C=C2\SC(=S)N(CCC(=O)Nc3ccc(O)cc3)C2=O)cc1 | > 80 µM (inactive)
